# Measurements published in patent US12215354B2, “Differentiation of human embryonic stem cells into single hormonal insulin positive cells” (Janssen Biotech, Inc., priority 2011, dated 2025).
# Test system: human embryonic stem cell line H1
# Experiment: Immune staining for insulin, glucagon and somatostatin hormones at end of stage 5 (Example 11)
# Format: cell-based
# Conditions: percentage of the entire hormone count, 0.25 mM ascorbic acid
# Method: Cells of the human embryonic stem cell line H1 at various passages (passage 40 to passage 52) were seeded as single cells at a density of 100,000 cells/cm^2 on MATRIGEL™ (1:30 dilution) coated dishes in mTesr™1 media and 10 μM of Y27632. Forty eight hours post seeding, cultures were differentiated into pancreatic endocrine lineage as follows: • a. Stage 1 (Definitive Endoderm (DE)−3 days): Prior to start of DE, the cultures were washed and incubated with incomplete PBS (no Mg or Ca) for 30 seconds followed by addition of the stage 1 media. Human embryonic stem cells cultured as single cells on MATRIGEL™-coated dishes were treated with MCDB-131 medium supplemented with 0.1% fatty acid-free BSA, 0.0012 g/ml sodium bicarbonate, 1× GLUTAMAX™, 5 mM D-Glucose, 100 ng/ml GDF8, and 1 μM MCX compound (GSK3B inhibitor) for one day. Cells were then treated with MCDB-131 medium supplemented with 0.1% fatty acid-free BSA, 0.0012 g/ml sodium bicarbonate, 1× GLUTAMAX™, 5 mM glucose, 100 ng/ml GDF8, and 100 nM MCX compound for day two, followed by an additional day in MCDB-131 medium supplemented with 0.1% fatty acid-free BSA, 0.0012 g/ml sodium bicarbonate, 1× GLUTAMAX™, 5 mM Glucose, and 100 ng/ml GDF8. • b. Stage 2 (Primitive gut tube−2 days): Stage 1 cells were treated with MCDB-131 medium supplemented with 0.1% fatty acid-free BSA, 0.0012 g/ml sodium bicarbonate, 1× GLUTAMAX™, 5 mM D-Glucose, and 25 ng/ml FGF7 for two days. • c. Stage 3 (Foregut−2 days): Stage 2 cells were treated with MCDB-131 medium supplemented with 1:200 dilution of ITS-X, 2.5 mM Glucose, 1× GLUTAMAX™, 0.0015 g/ml sodium bicarbonate, 2% fatty acid-free BSA, 10 ng/ml Activin A, 25 ng/ml FGF7, 0.25 μM SANT-1, 1 μM RA, 200 nM TPB (PKC activator), 100 nM LDN-193189 (BMP receptor inhibitor) for one day. Cells were then treated with MCDB-131 medium supplemented with 1:200 dilution of ITS-X, 2.5 mM Glucose, 1× GLUTAMAX™, 0.0015 g/ml sodium bicarbonate, 2% fatty acid-free BSA, 10 ng/ml Activin A, 25 ng/ml FGF7, 0.25 μM SANT-1, 1 μM RA, 200 nM TPB (PKC activator), 10 nM LDN-193189 for an additional day. […]
structure (smiles),measurement,value
O=C1O[C@H]([C@@H](O)CO)C(O)=C1O [ascorbic acid],% Polyhormonal,36%
same,% glucagon + plus % somatostatin+,44%
same,% single hormonal Insulin+,55%
